Data from US11325913B2, “Compounds and methods for the treatment of malaria” (THE BROAD INSTITUTE, INC., priority 2013, dated 2022).

Test system: P. falciparum Dd2
Assay: Activity against the Dd2 strain of P. falciparum (SYBR Green I, 72 h)
Assay type: cell-based
Settings: P. falciparum Dd2, 72 h incubation
Protocol: The Dd2 strain of P. falciparum was cultured in complete medium (RPMI with L-glutamine, 4.3% heat-inactivated O-positive human serum, 2.08 mg/ml albumax, 0.013 mg/ml hypoxanthine, 1.17 mg/ml glucose, 0.18% NaHCO3, 0.031 M Hepes, 2.60 mM NaOH, and 0.043 mg/ml gentamicin) until the parasitemia reached 3-8%. Parasitemia was determined by checking at least 500 red blood cells from a Giemsa-stained blood smear. The Dd2 cultures along with tested O-positive red blood cells were centrifuged at room temperature at 2,000 rpm for 5 minutes using an Eppendorf centrifuge 5810R with an A-4-81 rotor. The medium was aspirated off. For the compound screening, a parasite dilution at a 1% parasitemia and 1.0% hematocrit was created with screening medium (RPMI with L-glutamine, 4.16 mg/ml albumax II, 0.013 mg/ml hypoxanthine, 1.73 mg/ml glucose, 0.18% NaHCO3, 0.031 M Hepes, 2.60 mM NaOH, and 0.043 mg/ml gentamicin). The suspension was gassed with 93% nitrogen, 4% carbon dioxide, and 3% oxygen and placed at 37° C. until needed. Using a liquid dispenser, 20 μl of screening medium was dispensed into 384-well, black, clear-bottom plates. With a PinTool, 100 nl of compounds dissolved in DMSO was transferred into the assay plates along with control compound (mefloquine). Next, 30 μl of the parasite suspension in screening medium was then dispensed into the assay plates such that the final parasitemia was 1% and the final hematocrit was 1.0%. Final concentration of DMSO was 0.125%. Mefloquine at a final concentration of 20 μM and DMSO at a final concentration of 0.125% were used within the assay plates to serve as background and baseline controls, respectively. The assay plates were transferred to incubators (93% nitrogen, 4% carbon dioxide, and 3% oxygen during the 72 h incubation at 37° C.). Ten microliters of detection reagent consisting of 10×SYBR Green I (Invitrogen; supplied in 10,000× concentration) in lysis buffer (20 mM Tris-HCl, 5 mM EDTA, 0.16% Saponin wt/vol, 1.6% Triton X vol/vol) was dispensed into the assay plates. For optimal staining, the assay plates were left at room temperature for 24 h in the dark. The assay plates were read by using an Envision (PerkinElmer) reader, with 505 dichroic mirrors with 485-nm excitation and 530-nm emission settings, and the plate reads were from the bottom.
By following the above-described protocol, the 50% effective concentration (EC50) for compounds 1-95 was measured against P. falciparum Dd2 and the results are shown in Table 2: […]

EC50 [nM]	SMILES
17	O=C(Nc1ccc(F)cc1)N1CCCCN2[C@H](CO)[C@H](c3ccc(C#Cc4ccccc4)cc3)[C@@H]2C1 [Compound 11, (8R,9R,10S)-N-(4-fluorophenyl)-10-(hydroxymethyl)-9-(4-(phenylethynyl)phenyl)-1,6-diazabicyclo[6.2.0] decane-6-carboxamide]

Same assay, conditions: Plasmodium falciparum, DD2, 72 h, P. falciparum Dd2, 72 h incubation

EC50 [nM]	SMILES
427	COc1cccc(CN2CCCCN3[C@H](CO)[C@@H](c4ccc(C#Cc5cccnc5)cc4)[C@@H]3C2)c1 [Compound 1, ((8R,9S,10S)-6-(3-methoxybenzyl)-9-(4-(pyridin-3-ylethynyl)phenyl)-1,6-diazabicyclo[6.2.0]decan-10-yl)methanol]
165	O=C(Nc1ccccc1)N1CCCCN2[C@H](CO)[C@H](c3ccc(C#Cc4cccnc4)cc3)[C@@H]2C1 [Compound 2, (8R,9R,10S)-10-(hydroxymethyl)-N-phenyl-9-(4-(pyridin-3-ylethynyl)phenyl)-1,6-diazabicyclo[6.2.0] decane-6-carboxamide]
118	COc1ccccc1NC(=O)N1CCCCN2[C@H](CO)[C@H](c3ccc(C#Cc4ccccc4)cc3)[C@@H]2C1 [Compound 3, (8R,9R,10S)-10-(hydroxymethyl)-N-(2-methoxyphenyl)-9-(4-(phenylethynyl)phenyl)-1,6-diazabicyclo[6.2.0] decane-6-carboxamide]
131	COc1ccc(NC(=O)N2CCCCN3[C@H](CO)[C@H](c4ccc(C#Cc5ccccn5)cc4)[C@@H]3C2)cc1 [Compound 4, (8R,9R,10S)-10-(hydroxymethyl)-N-(4-methoxyphenyl)-9-(4-(pyridin-2-ylethynyl)phenyl)-1,6-diazabicyclo[6.2.0] decane-6-carboxamide]
1070	O=S(=O)(c1ccc(F)cc1)N1CCCCN2[C@@H](CO)[C@@H](c3ccc(C4=CCCCC4)cc3)[C@@H]2C1 [Compound 5, ((8R,9S,10R)-6-((4-fluorophenyl)sulfonyl)-9-(2′,3′,4′,5′-tetrahydro-[1,1′-biphenyl]-4-yl)-1,6-diazabicyclo[6.2.0]decan-10-yl)methanol]
552	O=C(Nc1ccccc1)N1CCCCN2[C@@H](CO)[C@H](c3ccc(C#Cc4cccnc4)cc3)[C@@H]2C1 [Compound 6, (8R,9R,10R)-10-(hydroxymethyl)-N-phenyl-9-(4-(pyridin-3-ylethynyl)phenyl)-1,6-diazabicyclo[6.2.0] decane-6-carboxamide]
1190	Cc1cccc(-c2ccc([C@H]3[C@H]4CN(S(=O)(=O)c5cccc(C)c5)CCCCN4[C@H]3CO)cc2)c1 [Compound 7, ((8S,9S,10R)-9-(3′-methyl-[1,1′-biphenyl]-4-yl)-6-(m-tolylsulfonyl)-1,6-diazabicyclo[6.2.0]decan-10-yl)methanol]
83	COc1ccc(C#Cc2ccc([C@@H]3[C@@H](CO)N4CCCCN(C(=O)Nc5cccc(F)c5)C[C@H]34)cc2)cc1 [Compound 8, (8S,9S,10S)-N-(3-fluorophenyl)-10-(hydroxymethyl)-9-(4-((4-methoxyphenyl)ethynyl)phenyl)-1,6-diazabicyclo[6.2.0] decane-6-carboxamide]
518	OC[C@H]1[C@@H](c2ccc(-c3ccc(F)cc3)cc2)[C@@H]2CN(CCC(F)(F)F)CCCCN12 [Compound 9, ((8R,9S,10R)-9-(4′-fluoro-[1,1′-biphenyl]-4-yl)-6-(3,3,3-trifluoropropyl)-1,6-diazabicyclo[6.2.0]decan-10-yl)methanol]
949	O=C(Nc1ccccc1F)N1CCCCN2[C@@H](CO)[C@H](c3ccc(C#Cc4cccnc4)cc3)[C@@H]2C1 [Compound 10, (8R,9R,10R)-N-(2-fluorophenyl)-10-(hydroxymethyl)-9-(4-(pyridin-3-ylethynyl)phenyl)-1,6-diazabicyclo[6.2.0] decane-6-carboxamide]
950	O=C(Nc1ccccc1F)N1CCCCN2[C@@H](CO)[C@@H](c3ccc(C#Cc4cccnc4)cc3)[C@@H]2C1 [Compound 12]
44	O=C(Nc1cccc(F)c1)N1CCCCN2[C@H](CO)[C@H](c3ccc(C#Cc4ccccc4)cc3)[C@@H]2C1 [Compound 13, (8R,9R,10S)-N-(3-fluorophenyl)-10-(hydroxymethyl)-9-(4-(phenylethynyl)phenyl)-1,6-diazabicyclo[6.2.0] decane-6-carboxamide]
1200	COc1ccccc1NC(=O)N1CCCCN2[C@H](CO)[C@H](c3ccc(C#CC4CC4)cc3)[C@H]2C1 [Compound 14, (8S,9R,10S)-9-(4-(cyclopropylethynyl)phenyl)-10-(hydroxymethyl)-N-(2-methoxyphenyl)-1,6-diazabicyclo[6.2.0] decane-6-carboxamide]
254	COc1ccccc1C#Cc1ccc([C@@H]2[C@@H](CO)N3CCCCN(CCC(F)(F)F)C[C@H]23)cc1 [Compound 15, ((8S,9S,10S)-9-(4-((2-methoxyphenyl)ethynyl)phenyl)-6-(3,3,3-trifluoropropyl)-1,6-diazabicyclo[6.2.0]decan-10-yl)methanol]
618	OC[C@H]1[C@@H](c2ccc(-c3cccc(F)c3)cc2)[C@@H]2CN(CCC(F)(F)F)CCCCN12 [Compound 16, ((8R,9S,10R)-9-(3′-fluoro-[1,1′-biphenyl]-4-yl)-6-(3,3,3-trifluoropropyl)-1,6-diazabicyclo[6.2.0]decan-10-yl)methanol]
560	COc1cccc(CN2CCCCN3[C@H](CO)[C@@H](c4ccc(C#Cc5cccnc5)cc4)[C@H]3C2)c1 [Compound 17, ((8S,9S,10S)-6-(3-methoxybenzyl)-9-(4-(pyridin-3-ylethynyl)phenyl)-1,6-diazabicyclo[6.2.0]decan-10-yl)methanol]
800	COc1ccc(C#Cc2ccc([C@@H]3[C@@H](CO)N4CCCCN(C(=O)Nc5ccccc5F)C[C@H]34)cc2)cc1 [Compound 18, (8S,9S,10S)-N-(2-fluorophenyl)-10-(hydroxymethyl)-9-(4-((4-methoxyphenyl)ethynyl)phenyl)-1,6-diazabicyclo[6.2.0] decane-6-carboxamide]
805	CC(C)CC#Cc1ccc([C@@H]2[C@H](CO)N3CCCCN(S(=O)(=O)Cc4ccccc4)C[C@@H]23)cc1 [Compound 19, ((8R,9S,10R)-6-(benzylsulfonyl)-9-(4-(4-methylpent-1-yn-1-yl)phenyl)-1,6-diazabicyclo[6.2.0]decan-10-yl)methanol]
1330	COCC#Cc1ccc([C@@H]2[C@H](CO)N3CCCCN(S(=O)(=O)c4ccc(OC)cc4)C[C@@H]23)cc1 [Compound 20, ((8R,9S,10R)-6-((4-methoxyphenyl)sulfonyl)-9-(4-(3-methoxyprop-1-yn-1-yl)phenyl)-1,6-diazabicyclo[6.2.0]decan-10-yl)methanol]
623	OC[C@@H]1[C@H](c2ccc(-c3ccccc3)cc2)[C@H]2CN(CCC(F)(F)F)CCCCN12 [Compound 21, ((8S,9R,10S)-9-([1,1′-biphenyl]-4-yl)-6-(3,3,3-trifluoropropyl)-1,6-diazabicyclo[6.2.0]decan-10-yl)methanol]
507	O=C(Nc1ccccc1F)N1CCCCN2[C@H](CO)[C@H](c3ccc(C#Cc4cccnc4)cc3)[C@@H]2C1 [Compound 22, (8R,9R,10S)-N-(2-fluorophenyl)-10-(hydroxymethyl)-9-(4-(pyridin-3-ylethynyl)phenyl)-1,6-diazabicyclo[6.2.0] decane-6-carboxamide]
386	COc1ccccc1NC(=O)N1CCCCN2[C@@H](CO)[C@H](c3ccc(C#CC4CCCC4)cc3)[C@@H]2C1 [Compound 23, (8R,9R,10R)-9-(4-(cyclopentylethynyl)phenyl)-10-(hydroxymethyl)-N-(2-methoxyphenyl)-1,6-diazabicyclo[6.2.0] decane-6-carboxamide]
418	COc1ccc(NC(=O)N2CCCCN3[C@H](CO)[C@H](c4ccc(C#CCC(C)C)cc4)[C@@H]3C2)cc1 [Compound 24, (8R,9R,10S)-10-(hydroxymethyl)-N-(4-methoxyphenyl)-9-(4-(4-methylpent-1-yn-1-yl)phenyl)-1,6-diazabicyclo[6.2.0] decane-6-carboxamide]
155	COc1ccc(NC(=O)N2CCCCN3[C@@H](CO)[C@H](c4ccc(C#Cc5ccccn5)cc4)[C@@H]3C2)cc1 [Compound 25, (8R,9R,10R)-10-(hydroxymethyl)-N-(4-methoxyphenyl)-9-(4-(pyridin-2-ylethynyl)phenyl)-1,6-diazabicyclo[6.2.0] decane-6-carboxamide]
